# According to patent US6274568A, “Compounds for altering cell surface sialic acids and methods of use therefor” (priority 1999, dated 2001):
# “Also recorded” adds a separate entry of the source.
# What was measured:
# Jurkat cells = test: Uptake of mannosamine precursors and conversion to sialic acids in Jurkat cells, HPLC; type: cell-based, human; conditions: 48 h
# Experimental: (§1) Cells were harvested using hypertonic Ca^2+ - and Mg^2+ -free phosphate-buffered saline containing 1 mM EDTA, collected by centrifugation, and homogenized in ice-cold water using a Potter-Elvehjem glass/Teflon homogenizer. Methanol (2.6 volumes) was added, the suspension mixed and brought to ambient temperature, then chloroform (1.3 volumes, based on the original homogenate) was added and the suspension mixed vigorously. The suspension was centrifuged 30 min at 2,000×g. After collecting the supernatant, the pellet (containing precipitated proteins) was resuspended in water or concentrated ammonium hydroxide and a portion was used for protein assay (BCA, Pierce, Rockford, Ill.). The supernatant was partitioned by adjusting the chloroform-methanol-water ratio to 4:8:5.6 by addition of water, mixing thoroughly, and centrifuging as above. The upper phase was collected and a portion was subjected to reverse phase chromatography, using Sep-Pak C18 cartridges (Waters, Milford, Mass.), to isolate gangliosides (Schnaar, Methods Enzymol. 230:371, 1994).
# (§2) To quantify and identify sialic acids, a portion of resolublized protein, organic/aqueous soluble pool, or reverse-phase purified gangliosides was evaporated to dryness in a 500-μl polypropylene tube and 20 μl of 0.1 M HCl/0.25 M NaCl was added. One Ampliwax bead (Perkin Elmer Corp, Foster City, Calif.) per reaction was added to block evaporation, and the sample hydrolyzed for 3 h at 80° C. Released sialic acids were analyzed by injecting an aliquot (1-10 μl) onto a Dionex high pressure liquid chromatography system (Dionex Corporation, Sunnyvale, Calif.) using a HPIC-AS6 column and a pulsed amperometric detector. Elution solutions were: A, 0.75 mM NaOH; B, 200 mM NaOH; and C, 400 mM sodium acetate in 50 mM NaOH. NeuAc and NeuPr were resolved by elution with 40% A, 50% B, 10% C for 15 min at 1 ml/min. NeuGc was resolved in separate injections using step gradient elution: 0-1.8 min, 18% A, 50% B, 32% C; 2-10 min, 40% B, 60% C. Sialic acids were identified by comparison of their elution time with those of standard NeuAc, NeuPr and NeuGc and were quantified in comparison to a standard curve of commercial NeuAc (for NeuAc and NeuPr) or NeuGc.
# (§3) To confirm that the quantified peaks represented sialic acids, 10 μl of acid hydrolysates were treated with 1 μl of 1 M sodium phosphate (pH 7.2) and 10 μl of 0.1 M NaOH. Neutralized samples were incubated at 37° C. for 2 h with or without 0.9 U of N-acetylneuraminic acid aldolase (Sigma), 32 μM NADH and 0.1 μg lactate dehydrogenase. Sialic acid content in the ganglioside and glycoprotein fractions is expressed per mg of total cell protein. Precursor pool sialic acid (sialic acid plus CMP-sialic acid) was calculated by subtracting the ganglioside value from the organic/aqueous pool value, both expressed per mg of cell protein.
# Sialic acid is biosynthesized from the precursor sugar N-acetylmannosamine (FIG. 2). In the present invention, sialic acids are converted on live neuronal cells from NeuAc, which is a key determinant for MAG binding, to NeuGc, which is non-permissive for MAG binding. A potential NeuGc precursor, N-glycolylmannosamine monoacetate (ManNGcMA, FIG. 1, R1 =H) was tested for its ability to generate altered sialic acids in neuronal and non-neuronal cells. N-propanoylmannosamine (ManNPr) and other N-acyl mannosamine derivatives have been used to modify glycoprotein associated sialic acids to the corresponding N-acylneuraminic acid. N-propanoyl-mannosamine (ManNPr), was used as a positive control. Jurkat human lymphoma cells and NG108-15 cells (rodent neuroblastoma/glioma hybrid cells) were incubated in 20 mM synthetic precursor or control precursor (N-acetylmannosamine, ManNAc) for 48 h, then harvested. Cell pellets were fractioned into lipid associated, protein associated, and intracellular (lipid and cytoplasmic which may consist of oligosaccharide-bound, free, or CMP-activated sialic acid) sialic acids and hydrolyzed to release sialic acid. […]
# NG108-15 cells [1] = test: Uptake of mannosamine precursors and conversion to sialic acids (precursor pool, gangliosides, glycoproteins) in NG108-15 cells, HPLC; type: cell-based, mouse neuroblastoma/rat glioma hybrid; conditions: for ganglioside (lipid) sialic acid in the NeuGc form: NG108-15, 20 mM precursor (FIG. 3)
# Experimental: as §1, §2, §3
# Sialic acid is biosynthesized from the precursor sugar N-acetylmannosamine (FIG. 2). In the present invention, sialic acids are converted on live neuronal cells from NeuAc, which is a key determinant for MAG binding, to NeuGc, which is non-permissive for MAG binding. A potential NeuGc precursor, N-glycolylmannosamine monoacetate (ManNGcMA, FIG. 1, R1 =H) was tested for its ability to generate altered sialic acids in neuronal and non-neuronal cells. N-propanoylmannosamine (ManNPr) and other N-acyl mannosamine derivatives have been used to modify glycoprotein associated sialic acids to the corresponding N-acylneuraminic acid. N-propanoyl-mannosamine (ManNPr), was used as a positive control. […] Cell pellets were fractioned into lipid associated, protein associated, and intracellular (lipid and cytoplasmic which may consist of oligosaccharide-bound, free, or CMP-activated sialic acid) sialic acids and hydrolyzed to release sialic acid. The hydrolyzed samples were then analyzed by HPLC to determine sialic acid content. […]
# NG108-15 cells [2] = test: Cell growth and viability of precursor-treated NG108-15 cells; conditions: 1 mM
# Experimental: Cell growth rates were determined in control cultures (.box-solid.), in cultures treated with 0.08 mM (.circle-solid.), 0.25 mM (.smallcircle.), or 1 mM (.quadrature.) ManNGcPA, and in cultures treated with 0.25 mM (.tangle-solidup.) or 1 mM (Δ) glucose pentaacetate.
# NG108-15 cells were maintained in Dulbecco's modified Eagle's medium (high glucose formulation) containing 5% iron-enriched calf serum, 100 μM hypoxanthine, 16 μM thymidine, and 5 μM aminopterin. […] Both cell types were cultured at 37° C. in a humidified atmosphere of 90% air/10% CO2. For treatment with sialic acid precursors, mannosamine derivatives were diluted into the appropriate medium and filter sterilized. […] In experiments testing ManNGcPA, all cells (control and experimental) were grown in the presence of 0.5% (v/v) DMSO, the carrier for ManNGcPA.
# MAG-Fc chimera = test: MAG-Fc binding to precursor-treated NG108-15 cells by flow cytometry; type: cell-based
# Experimental: Flow cytometry was used to test binding of a soluble MAG-Fc chimera to precursor-treated and control NG108-15 cells. A chimeric protein consisting of the entire extracellular domain of MAG fused via a three amino acid bridge (TGK) to the human Fc domain was produced using the "pIgPlus" vector (Novagen, Madison, Wis.). A PCR fragment coding for the extracellular domain of MAG was prepared using MAG in pCDM8 as template (Yang et al., 1996a), the T7 5' primer […] (SEQ ID NO:1) and […] (SEQ ID NO:2) as the 3' primer. The fragment was cut with BamHI and HindIII and directionally cloned into the pIgPlus vector. The resulting construct was sequenced to confirm its identity, transfected into COS cells, and the resulting MAG-Fc chimera was purified from the culture medium using Protein G affinity chromatography.
# For MAG binding studies, NG108-15 cells were cultured in the presence of sialic acid precursors for the indicated times, then were released from culture dishes using hypertonic Ca^2+ /Mg^2+ -free phosphate-buffered saline (Yang et al., Proc. Natl. Acad. Sci. USA., 93:814, 1996) and resuspended (at […]) in 25 mM Hepes-buffered Hanks balanced salt solution (Bashor, Methods Enzymol., 58:119, 1979) containing 5 mg/ml bovine serum albumin. MAG-Fc (6 μg) was added to 100 μl of the same buffer containing 6 μg fluorescein isothiocyanate-labeled goat anti-human Fc (Jackson Immunoresearch, West Grove, Pa.) and incubated on ice for 1 h 45 min with frequent mixing. Cell suspension (100 μl containing 50,000 cells) was added to the premixed antibody solution and the mixture incubated on ice for 45 min. The cells were then centrifuged for 4 sec at 16,000×g and washed three times by resuspension in 200 μl of buffer with bovine serum albumin and centrifugation. The resulting cell pellet was resuspended in 100 μl buffer with bovine serum albumin and flow cytometry was performed on an Epics Profile II cytometer (Coulter Corp, Hialeah, Fla.).
# NG108-15 cells, a mouse neuroblastoma/rat glioma hybrid, display many qualities of cholinergic neurons, including neurite outgrowth, synthesis, storage and release of acetylcholine, and functional synapse formation with muscle cells in vitro. Neurite outgrowth from NG108-15 cells is inhibited by MAG (McKerracher et al., Neuron, 13:805, 1994), an interaction which is reversed by pretreatment of the cells with neuraminidase (Schnaar et al., Ann. N.Y. Acad. Sci., 845:92, 1998). […] Binding was quantified by flow cytometry. […]
# [3] = tested on: myelin-associated glycoprotein (MAG); conditions: cited from earlier work
# [4] = NG108-15, 20 mM precursor, 48 h
molecule,measurement,setting,value
"CC(=O)OCC(=O)N[C@@H]1C(O)O[C@H](CO)[C@@H](O)[C@@H]1O (stereo partly drawn) [ManNGcMA, N-Glycolylmannosamine monoacetate]",sialic acid precursor pool as NeuGc,Jurkat cells; 20 mM precursor,nearly all NeuGc
same,total sialic acid precursor pool size,Jurkat cells; 20 mM precursor,increase in total sialic acid precursor pool size (comparable to treatment with ManNPr)
same,"incorporation of NeuGc into gangliosides, relative to 1 mM ManNGcPA","NG108-15 cells [1]; 5 mM, 48 h",much less
same,"incorporation of NeuGc into glycoproteins, relative to 1 mM ManNGcPA","NG108-15 cells [1]; 5 mM, 48 h",much less
same,conversion of glycoprotein sialic acids to the NeuGc form,"NG108-15 cells [1]; 20 mM precursor, 48 h",≈ 30%
same,decrease in total glycoprotein sialic acid,"NG108-15 cells [1]; 20 mM precursor, 48 h",≈ 40%
same,sialic acid precursor pool in the NeuGc form,"NG108-15 cells [1]; 20 mM precursor, 48 h",≈ 70%
same,sialic acid precursor pool size compared to untreated control,"NG108-15 cells [1]; 20 mM precursor, 48 h",markedly smaller sialic acid precursor pool
same,sialic acid precursor pool size,"NG108-15 cells [1]; 0.1 or 1.0 mM ManNGcPA, or 5 mM ManNGcMA, 48 h",none of these treatments significantly altered the sialic acid precursor pool size
same,ganglioside (lipid) sialic acid in the NeuGc form,NG108-15 cells [1]; 48 h,≈ 30%
same,size of the ganglioside pool,NG108-15 cells [1]; [4],remained relatively constant
glucose pentaacetate,cell growth,NG108-15 cells [2],more profound decreases in cell growth and viability than the ManNGcPA-treated cells
same,cell viability (in words),NG108-15 cells [2],more profound decreases in cell growth and viability than the ManNGcPA-treated cells
"CC(=O)OC[C@H]1OC(OC(C)=O)[C@@H](NC=O)[C@@H](OC(C)=O)[C@@H]1OC(C)=O (stereo partly drawn) [ManNFr-OAc, N-formylmannosaminne peracetate]",glycolipid associated sialic acid as NeuFr,NG108-15 cells [1]; 48 hours,10%
same,levels of intracellular sialic acid in the form of NeuFr,NG108-15 cells [1]; FIG. 13,elevated levels of intracellular sialic acid in the form of N-formyneuraminic acid
"O=C(CO)N[C@@H]1C(O)O[C@H](CO)[C@@H](O)[C@@H]1O (stereo partly drawn) [ManNGc, N-glycolylmannosamine]",decrease in MAG-mediated recognition,MAG-Fc chimera; ng108-15 cells,60%
same,intracellular NeuGc,Jurkat cells,expected rise in intracellular NeuGc
same,lipid sialic acid in the form of NeuGc,Jurkat cells,Approximately 50%
same,protein sialic acid in the form of NeuGc,Jurkat cells,Approximately 50%
same,levels of NeuGc in any of the fractions analyzed,NG108-15 cells [1]; 5 mM,did not result in substantial levels of NeuGc
same,levels of NeuGc (elevation),"NG108-15 cells [1]; 5 mM in the presence of DMSO, 48 h",did not result in elevated levels of NeuGc
same,intracellular sialic acid in the form of NeuGc,"NG108-15 cells [1]; 5 mM, 48 h",13.6%
same,protein associated sialic acid as NeuGc,"NG108-15 cells [1]; 5 mM, 48 h",9.5%
same,total lipid associated sialic acid as NeuGc,"NG108-15 cells [1]; 5.0 mM, 48 h",5%
same,ganglioside (lipid) sialic acid in the NeuGc form,NG108-15 cells [1]; 48 h,~70%
same,intracellular NeuGc,"NG108-15 cells [1]; NG108-15 compared with Jurkat, 48 h",substantially lower levels
same,glycoconjugate sialic acid in the form of NeuGc,NG108-15 cells [1]; in MAG recognition experiment,60%
"CC(=O)N[C@@H]1C(O)O[C@H](CO)[C@@H](O)[C@@H]1O (stereo partly drawn) [ManNAc, N-acetylmannosamine, reference compound]",levels of intracellular sialic acid,Jurkat cells; 20 mM precursor,high levels
same,increase in intracellular sialic acid (precursor pool),"NG108-15 cells [1]; 20 mM precursor, 48 h",≤ 14 fold
same,increase in total glycoprotein sialic acid,"NG108-15 cells [1]; 20 mM precursor, 48 h",≈ 2 fold
same,levels of intracellular sialic acid,NG108-15 cells [1]; [4],high levels
"O=C(CO)N[C@H]1[C@H]([C@H](O)[C@H](O)CO)OC(O)(C(=O)O)C[C@@H]1O (stereo partly drawn) [NeuGc, N-glycolylneuraminic acid]",support of MAG binding / recognition,[3],but not N-glycolylneuraminic acid (NeuGc) support MAG binding; also recorded: does not support MAG binding
"CC(=O)N[C@@H]1C(OC(C)=O)O[C@H](COC(C)=O)[C@@H](OC(C)=O)[C@@H]1OC(C)=O (stereo partly drawn) [ManNAc-tetraacetate, ManNAc tetra-O-acetate, reference compound]",effect on MAG-Fc binding,"MAG-Fc chimera; 1 mM, 96 h",no significant effect on binding
